Measured values: PubChem BioAssay AID1963847 (Molecular Pharmacology Branch, DTP, NCI, 2024)

Tested on: 415267-285-R-J2-PDC complex spheroid viability
Assay: Anticancer human tumor 415267-285-R-J2-PDC patient-derived breast carcinoma cell line growth inhibition [POLQ]
Conditions: for IC50: curve of first compound; for viability, T/C: stronger effect = lower value
Method: Multicellular complex tumor spheroid response to Polymerase (POL) inhibitors (novobiocin, ART-558, RP6685) in combination with a variety of drugs and investigational agents in selected tumor cell lines
The POL inhibitors (novobiocin, ART-558, and RP6685) were evaluated both individually and in combination with standard of care and investigational anticancer small molecules within a complex spheroid model of solid tumors. . Complex spheroids include a stromal component modeled by human endothelial cells (HUVEC) and fibroblasts modeled by human mesenchymal stem cells (MSCs). The concentration ranges selected for each drug and investigational agent were based upon clinically achievable concentrations if the clinical Cmax of the agent was known.
Compounds. The drugs and investigational agents: novobiocin (NSC847541), ART-558 (NSC835418), RP-6685 (NSC848927), peposertib (NSC802822), ceralasertib (NSC780249), elimusertib (NSC800525), camonsertib (NSC841442), AZD-1390 (NSC803789), olaparib (NSC753686), talazoparib (NSC767125), rucaparib (NSC756644), sotorasib (NSC818433), MRTX-1133 (NSC836407), SN-38 (NSC673596), topotecan (NSC609699), epotoside (NSC141540), doxorubicin (NSC123127), gemcitabine (NSC613327), 5-fluorouracil (NSC19893), paclitaxel (NSC125973), vemurafenib (NSC761431), MSA-2 (NSC828583), SN-011 (NSC837082), adavosertib (NSC754352), prexasertib (NSC758257), carboplatin (NSC241240) and oxaliplatin (NSC266046), were obtained from the National Cancer Institute (NCI) Developmental Therapeutics Program Chemical Repository (21). The FDA-approved anticancer drug set is available from the Developmental Therapeutics Program at https://dtp.cancer.gov/organization/dscb/obtaining/. […] The stock solutions were prepared in dimethyl sulfoxide (DMSO, Sigma-Aldrich, St. Louis, MO, cat. D2650), except for the platinum compounds which were prepared in saline (Quality Biological, Gaithersburg, MD, cat. 114-055-101), at 800-fold the tested concentration and stored at -70 degrees C prior to their use. All drugs and investigational agents were tested over a range starting from a high concentration at or near the clinical Cmax and decreasing in half-log increments. If the clinical Cmax for an agent had not been determined, the highest concentration tested was 10 microM, except for SN-38, which was tested at a high concentration of 1 microM.
Cell Culture. All cells were maintained in an incubator at 37 degrees C and 5% CO2 with 95% humidity. The PDC lines were cultured according to standard operating procedures established by the NCI PDMR (https://pdmr.cancer.gov). Table 3 of the manuscript, lists the cell lines along with the number of the three cell types plated to form the mct-spheroids and media for tumor cell growth. After thawing, all PDC lines, except 997537-175-T-J1-PDC and 415267-285-R-J2-PDC, were cultured in Matrigel-coated flasks prepared with a working solution of 1X Ham's F-12 nutrient mix, without supplementation (Thermo Fisher Scientific, cat. 11765054), 100 U/mL penicillin-streptomycin (Thermo Fisher Scientific, cat. 15140122), and 2.5% Matrigel (Corning Inc., Corning, NY, cat. 354248) for the first three passages. The two PDC lines 997537-175-T-J1-PDC and 415267-285-R-J2-PDC were cultured on uncoated flasks. The 857933-349-R-J2-PDC line was cultured in 6C/Colon 1B media containing advanced DMEM/F-12 (Thermo Fisher Scientific, cat. 12634028), 10 mM HEPES (Thermo Fisher Scientific, cat. 15630080), 1X GlutaMAX supplement (Thermo Fisher Scientific, cat. 35050061), 0.1 mg/mL primocin (InvivoGen, San Diego, CA, cat. ant-pm-2), 10% defined fetal bovine serum, heat inactivated (HyClone Laboratories Inc., Logan, UT, cat. SH30070.03HI), 50% L-WRN conditioned media (ATCC, cat. CRL-3276), 1.25 mM N-Acetyl-L-cysteine (Sigma-Aldrich, cat. A9165), 10 mM nicotinamide (Sigma-Aldrich, cat. N0636), 1X B-27 supplement (Thermo Fisher Scientific, cat. 17504044), 1X N-2 supplement (Thermo Fisher Scientific, cat. […]
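Also: spheroids exposed to compounds for one week before readout.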
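For viability, T/C in this document: luminescence used as stand-in measure of viable cells; 100% = DMSO vehicle control viability.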

Structure (SMILES): CC(=O)O[C@H]1C(=O)[C@@]2(C)[C@H]([C@H](OC(=O)c3ccccc3)[C@]3(O)C[C@H](OC(=O)[C@H](O)[C@@H](NC(=O)c4ccccc4)c4ccccc4)C(C)=C1C3(C)C)[C@]1(OC(C)=O)CO[C@@H]1C[C@@H]2O + COC1C(OC(N)=O)C(O)C(Oc2ccc3c(O)c(NC(=O)c4ccc(O)c(CC=C(C)C)c4)c(=O)oc3c2C)OC1(C)C
- IC50 (second compound 0.0316 µM): < 9.49 nM
- IC50 (second compound 0.1 µM): < 9.49 nM
- IC50 (second compound 0.316 µM): < 9.49 nM
- IC50 (second compound 1 µM): < 9.49 nM
- IC50 (second compound 3.16 µM): < 9.49 nM
- IC50 (second compound 10 µM): < 9.49 nM
- viability, T/C (second compound 0.0316 µM, first compound 0.00949 µM): 13.6%
- viability, T/C (second compound 0.0316 µM, first compound 0.03 µM): 9.68%
- viability, T/C (second compound 0.0316 µM, first compound 0.0949 µM): 8.14%
- viability, T/C (second compound 0.0316 µM, first compound 0.3 µM): 6.55%
- viability, T/C (second compound 0.0316 µM, first compound 0.949 µM): 8.38%
- viability, T/C (second compound 0.0316 µM, first compound 3 µM): 8.03%
- viability, T/C (second compound 0.1 µM, first compound 0.00949 µM): 11%
- viability, T/C (second compound 0.1 µM, first compound 0.03 µM): 8.15%
- viability, T/C (second compound 0.1 µM, first compound 0.0949 µM): 7.43%
- viability, T/C (second compound 0.1 µM, first compound 0.3 µM): 7.95%
- viability, T/C (second compound 0.1 µM, first compound 0.949 µM): 8.29%
- viability, T/C (second compound 0.1 µM, first compound 3 µM): 9.45%
- viability, T/C (second compound 0.316 µM, first compound 0.00949 µM): 13.1%
- viability, T/C (second compound 0.316 µM, first compound 0.03 µM): 9.7%
- viability, T/C (second compound 0.316 µM, first compound 0.0949 µM): 7.34%
- viability, T/C (second compound 0.316 µM, first compound 0.3 µM): 8.56%
- viability, T/C (second compound 0.316 µM, first compound 0.949 µM): 8.09%
- viability, T/C (second compound 0.316 µM, first compound 3 µM): 7.17%
- viability, T/C (second compound 1 µM, first compound 0.00949 µM): 12.9%
- viability, T/C (second compound 1 µM, first compound 0.03 µM): 8.82%
- viability, T/C (second compound 1 µM, first compound 0.0949 µM): 8.23%
- viability, T/C (second compound 1 µM, first compound 0.3 µM): 8.01%
- viability, T/C (second compound 1 µM, first compound 0.949 µM): 8.58%
- viability, T/C (second compound 1 µM, first compound 3 µM): 7.75%
- viability, T/C (second compound 3.16 µM, first compound 0.00949 µM): 13%
- viability, T/C (second compound 3.16 µM, first compound 0.03 µM): 10.4%
- viability, T/C (second compound 3.16 µM, first compound 0.0949 µM): 8%
- viability, T/C (second compound 3.16 µM, first compound 0.3 µM): 7.65%
- viability, T/C (second compound 3.16 µM, first compound 0.949 µM): 8.33%
- viability, T/C (second compound 3.16 µM, first compound 3 µM): 8.3%
- viability, T/C (second compound 10 µM, first compound 0.00949 µM): 24.1%
- viability, T/C (second compound 10 µM, first compound 0.03 µM): 9.1%
- viability, T/C (second compound 10 µM, first compound 0.0949 µM): 7.75%
- viability, T/C (second compound 10 µM, first compound 0.3 µM): 8.73%
- viability, T/C (second compound 10 µM, first compound 0.949 µM): 6.75%
- viability, T/C (second compound 10 µM, first compound 3 µM): 9.23%

Structure (SMILES): O=c1[nH]cc(F)c(=O)[nH]1 + COC1C(OC(N)=O)C(O)C(Oc2ccc3c(O)c(NC(=O)c4ccc(O)c(CC=C(C)C)c4)c(=O)oc3c2C)OC1(C)C
- IC50 (second compound 0.0316 µM): 194 nM
- IC50 (second compound 0.1 µM): 197 nM
- IC50 (second compound 0.316 µM): 162 nM
- IC50 (second compound 1 µM): 176 nM
- IC50 (second compound 3.16 µM): 205 nM
- IC50 (second compound 10 µM): 203 nM
- viability, T/C (second compound 0.0316 µM, first compound 0.0316 µM): 94.1%
- viability, T/C (second compound 0.0316 µM, first compound 0.1 µM): 72.7%
- viability, T/C (second compound 0.0316 µM, first compound 0.316 µM): 33.1%
- viability, T/C (second compound 0.0316 µM, first compound 1 µM): 31.1%
- viability, T/C (second compound 0.0316 µM, first compound 3.16 µM): 27.2%
- viability, T/C (second compound 0.0316 µM, first compound 10 µM): 37.1%
- viability, T/C (second compound 0.1 µM, first compound 0.0316 µM): 86.9%
- viability, T/C (second compound 0.1 µM, first compound 0.1 µM): 73.1%
- viability, T/C (second compound 0.1 µM, first compound 0.316 µM): 34.2%
- viability, T/C (second compound 0.1 µM, first compound 1 µM): 23.7%
- viability, T/C (second compound 0.1 µM, first compound 3.16 µM): 26.5%
- viability, T/C (second compound 0.1 µM, first compound 10 µM): 39.3%
- viability, T/C (second compound 0.316 µM, first compound 0.0316 µM): 97.7%
- viability, T/C (second compound 0.316 µM, first compound 0.1 µM): 63.8%
- viability, T/C (second compound 0.316 µM, first compound 0.316 µM): 31%
- viability, T/C (second compound 0.316 µM, first compound 1 µM): 27.2%
- viability, T/C (second compound 0.316 µM, first compound 3.16 µM): 26.7%
- viability, T/C (second compound 0.316 µM, first compound 10 µM): 34.5%
- viability, T/C (second compound 1 µM, first compound 0.0316 µM): 85.8%
- viability, T/C (second compound 1 µM, first compound 0.1 µM): 63.5%
- viability, T/C (second compound 1 µM, first compound 0.316 µM): 36.8%
- viability, T/C (second compound 1 µM, first compound 1 µM): 25.3%
- viability, T/C (second compound 1 µM, first compound 3.16 µM): 26.4%
- viability, T/C (second compound 1 µM, first compound 10 µM): 29.9%
- viability, T/C (second compound 3.16 µM, first compound 0.0316 µM): 94.6%
- viability, T/C (second compound 3.16 µM, first compound 0.1 µM): 76.3%
- viability, T/C (second compound 3.16 µM, first compound 0.316 µM): 34.2%
- viability, T/C (second compound 3.16 µM, first compound 1 µM): 27.1%
- viability, T/C (second compound 3.16 µM, first compound 3.16 µM): 25.4%
- viability, T/C (second compound 3.16 µM, first compound 10 µM): 37.2%
- viability, T/C (second compound 10 µM, first compound 0.0316 µM): 92%
- viability, T/C (second compound 10 µM, first compound 0.1 µM): 70%
- viability, T/C (second compound 10 µM, first compound 0.316 µM): 37.8%
- viability, T/C (second compound 10 µM, first compound 1 µM): 29.9%
- viability, T/C (second compound 10 µM, first compound 3.16 µM): 25.3%
- viability, T/C (second compound 10 µM, first compound 10 µM): 35.7%
